Results on 4 compounds are retold here after patent US20180116993A1, “MODULATORS OF FARNESOID X RECEPTOR AND METHODS FOR THE USE THEREOF” (XIAMEN UNIVERSITY, priority 2015, published 2018).

The test system of test [1] is human breast cancer MCF7 cells. Description: MTT cell viability assay, MCF-7. The test is classed as cell-based. As to conditions: 48 h, read-out: Cell viability as a percentage of the cells treated with DMSO, MCF-7. The procedure, abridged: (§1)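 Percent viability versus DMSO-treated controls was determined colorimetrically with MTT. Treatment used 20 uM or 40 uM compound on cells grown in serum-supplemented (10% FBS) DMEM.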
Background: Tetrazolium dyes change colour on reduction, which living cells bring about.

Test [2] concerns human cervical carcinoma Hela cells. Kind of test: MTT cell viability assay, Hela. The following applies: 48 h, read-out: Cell viability as a percentage of the cells treated with DMSO, Hela. In kind it is cell-based. The procedure, abridged:
as §1

The next test concerns the target T1, full-length FXR (Homo sapiens, UniProt Q96RI1).
T1 construct: The cells were co-transfected with plasmids encoding full-length FXR and the cognate luciferase reporter EcRE-Luc; expressed in transfected cells; host or cells: COS-7
T1 sequence (Q96RI1 1-486): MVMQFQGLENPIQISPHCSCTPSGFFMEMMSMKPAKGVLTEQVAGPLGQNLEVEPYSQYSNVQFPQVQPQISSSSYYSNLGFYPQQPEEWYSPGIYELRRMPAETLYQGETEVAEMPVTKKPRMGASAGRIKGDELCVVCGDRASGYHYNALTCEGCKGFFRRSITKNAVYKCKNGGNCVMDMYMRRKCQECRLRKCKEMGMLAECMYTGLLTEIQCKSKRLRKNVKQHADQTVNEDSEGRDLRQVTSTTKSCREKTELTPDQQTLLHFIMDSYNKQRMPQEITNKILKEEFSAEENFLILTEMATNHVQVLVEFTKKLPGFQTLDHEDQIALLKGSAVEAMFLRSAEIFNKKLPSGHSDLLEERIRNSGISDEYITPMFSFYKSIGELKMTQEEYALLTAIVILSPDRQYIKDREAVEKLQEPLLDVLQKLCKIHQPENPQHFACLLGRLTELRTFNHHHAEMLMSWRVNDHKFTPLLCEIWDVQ
Description: Cell-based FXR transactivation, EcRE luciferase reporter in COS-7 cells. The following applies: Table 2; for Cell-based FXR transactivation Fold changes by 5 μM compound: positive: induction, minus: repression; for EC50: EcRE luciferase reporter. The gist of the method:
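COS-7 cells were transiently cotransfected with full-length FXR, EcRE-Luc reporter and a renilla control. Ligands were added 5 h after transfection, and cells were harvested 24 h later. Firefly luciferase was normalized to renilla in a dual-luciferase read-out.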
(In general: A reporter such as luciferase makes a cellular process visible.)

The subject of test [3] is human colorectal adenocarcinoma HCT15 cells. Description: MTT cell viability assay, HCT15. In kind it is cell-based. The following applies: 48 h, read-out: Cell viability as a percentage of the cells treated with DMSO, HCT15; for viability at 20 µM: HCT-15, 20 uM; for viability at 40 µM: HCT-15, 40 uM. The gist of the method: as §1
In a further test the test system is db/db mice. Kind of test: Hepatic triglyceride, liver histology, serum ALT and ALP in high-fat diet fed db/db mice. The test is classed as in vivo, mouse. As to conditions: for Hepatic triglyceride (mM/g): vehicle 148 ± 14; for Serum ALP (U/L): vehicle 129 ± 15. The gist of the method: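 High-fat diet fed db/db mice aged 8-10 weeks dosed 10 mg/kg compound once daily for 10 days. Liver sections stained with H&E and 0.3% oil red O; hepatic triglyceride measured by tissue assay kit; serum ALP and ALT activities measured by kit.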

Test [4] concerns RA-resistant human colon cancer HCT116 cells. Description: MTT cell viability assay, HCT116. In kind it is cell-based. The following applies: 48 h, read-out: Cell viability as a percentage of the cells treated with DMSO, HCT116; for viability at 20 µM: HCT-116, 20 uM; for viability at 40 µM: HCT-116, 40 uM. The procedure, abridged:
as §1

For test [5], the target named is T2, FXR ligand binding domain (LBD) (Homo sapiens, UniProt Q96RI1).
T2 construct: made in house
T2 sequence (Q96RI1 262-486 limits assumed): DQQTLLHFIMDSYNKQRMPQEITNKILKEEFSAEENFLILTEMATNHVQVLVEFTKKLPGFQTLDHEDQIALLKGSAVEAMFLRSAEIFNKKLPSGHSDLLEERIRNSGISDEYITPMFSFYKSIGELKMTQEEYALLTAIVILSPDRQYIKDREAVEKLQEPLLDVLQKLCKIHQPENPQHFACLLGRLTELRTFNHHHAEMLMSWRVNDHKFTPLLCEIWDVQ
Kind of test: AlphaScreen assay: FXR LBD recruitment of coregulator peptide motifs (SRC2-3, SRC1-2). The test is classed as biochemical. As to conditions: Table 2. (Alpha assays give light when donor and acceptor beads are brought close together.)

Test [6] relates to human hepatoma HepG2 cells. Kind of test: MTT cell viability assay, HepG2. The test is classed as cell-based. The following applies: 48 h, read-out: Cell viability as a percentage of the cells treated with DMSO, HepG2. The procedure, abridged: as §1
Where [7] appears, read: 10 mg/kg for 10 days, vehicle 377 ± 48, Table 15.
The mark [8] stands for this setting: 10 mg/kg once daily for 10 days.
Where [9] appears, read: 10 mg/kg once daily for 10 days, vehicle 377 ± 48, Table 17.
Where [10] appears, read: SRC1-2 peptide, read-out: EC50 (μM) of FXR binding by AlphaScreen assay recruit SRC1-2.
Setting [11] is: SRC2-3 peptide, read-out: EC50 (μM) of FXR binding by AlphaScreen assay recruit SRC2-3.

Each structure is given as a SMILES string. Read-outs that look alike come from different tables or passages of the source. Marks after values point to notes of the source that are not given here.

For the compound `CC1(C)C2CCC1(C)C(OC(=O)C1CCC(O)CC1)C2` (stereo not drawn) [XD-20, 1,7,7-trimethyl-bicyclo[2.2.1]-heptan-2-yl 4-hydroxy-cyclohexane-carboxylate], the viability – broadly, a read-out of living cells in per cent, often relative to untreated cells – at 20 µM in test [1] worked out at 85%; in test [2], 100 ± 5%; in test [3], 100 ± 4%; in test [4] it was 79 ± 2%; in test [6] it was 100 ± 5%. Also, the viability at 40 µM worked out at 82 ± 1% in test [1]; 96 ± 1% in test [2]; 84 ± 4% in test [3]; 70 ± 7% in test [4]; 100 ± 2% in test [6]. Moreover, the “Cell-based FXR transactivation Fold changes by 5 μM compound” value on full-length FXR stood at 6. Further, the EC50 (usually the concentration giving half of the maximal effect) lay within 1000 to 10000 nM at full-length FXR, 1 to 10 µM in test [5] (setting [10]) and 1 to 10 µM in test [5] (setting [11]). For the same compound, the “Hepatic triglyceride (mM/g)” value with db/db mice (10 mg/kg for 10 days) is given as 60 ± 15^b mM/g. Further, the “Serum ALT (U/L)” value with db/db mice (setting [7]) was 115 ± 29 ^a U/L; in the test with db/db mice (setting [9]) it was 115 ± 29^a U/L. Also, the “Serum ALP (U/L)” value in the test on db/db mice (setting [8]) was 73 ± 19^a U/L.

For `CC1(C)C2CCC1(C)C(OC(=O)c1ccc(F)cc1)C2` (stereo not drawn) [XD-0, 1,7,7-trimethyl-bicyclo[2.2.1]-heptan-2-yl 4-fluorobenzoate], the viability at 20 µM in test [1] turned out to be 100 ± 2%; in test [2] it was 90%; in test [3], 81 ± 4%; in test [4] it was 95 ± 4%; in test [6], 81 ± 2%. For the same compound, the viability at 40 µM in test [1] amounted to 85%; in test [2] it was 71 ± 3%; in test [3], 56 ± 2%; in test [4], 62 ± 6%; in test [6], 76 ± 7%. In addition, the “Cell-based FXR transactivation Fold changes by 5 μM compound” value at full-length FXR is reported as 5. Further, the EC50 on full-length FXR was 1000 to 10000 nM; in test [5] (setting [10]), 1 to 10 µM; in test [5] (setting [11]), 1 to 10 µM. For the same compound, in the test with db/db mice (10 mg/kg for 10 days), the “Hepatic triglyceride (mM/g)” value was 91 ± 22 ^a mM/g. Also, the “Serum ALT (U/L)” value with db/db mice (setting [7]) is recorded as 106 ± 22 ^a U/L.

On to `COc1cc(C(=O)OC2CCCCCCC2)ccc1O` [XD-18, cyclooctyl 4-hydroxy-3-methoxybenzoate], for which the viability at 20 µM in test [1] came out at 98 ± 10%; in test [2], 100 ± 3%; in test [3], 91 ± 4%; in test [4] it was 92 ± 1%; in test [6], 96 ± 3%. In addition, the viability at 40 µM in test [1] amounted to 32%; in test [2], 71 ± 3%; in test [3], 40 ± 4%; in test [4], 30 ± 2%; in test [6] it was 55 ± 1%. Besides, on full-length FXR, the “Cell-based FXR transactivation Fold changes by 5 μM compound” value is given as 3. Further, the half-maximal effective concentration (EC50) on full-length FXR is less than 1000 nM; in test [5] (setting [10]), less than 1 µM; in test [5] (setting [11]), less than 1 µM. Besides, in the test on db/db mice (setting [8]), the “Serum ALP (U/L)” value is reported as 77 ± 9^c U/L. In the test on db/db mice (setting [9]), the “Serum ALT (U/L)” value is 129 ± 19^b U/L.

Regarding `CC1(C)C2CCC1(C)C(OC(=O)c1ccc(F)c(Br)c1)C2` (stereo not drawn) [XD-13, 1,7,7-trimethyl-bicyclo[2.2.1]-heptan-2-yl 3-bromo-4-fluoro-benzoate], the viability at 20 µM is 100 ± 7% in test [1]; 100 ± 3% in test [2]; 100 ± 2% in test [3]; 100 ± 2% in test [4]; 92 ± 3% in test [6]. The viability at 40 µM in test [1] came to 100 ± 1%; in test [2], 96 ± 1%; in test [3], 71 ± 3%; in test [4], 70 ± 5%; in test [6] it was 86 ± 1%. Besides, on full-length FXR, the “Cell-based FXR transactivation Fold changes by 5 μM compound” value is 4. The EC50 was less than 1000 nM on full-length FXR, less than 1 µM in test [5] (setting [10]) and less than 1 µM in test [5] (setting [11]). Also, in the test with db/db mice (setting [8]), the “Serum ALP (U/L)” value is listed as 92 ± 7^c U/L. In the test on db/db mice (setting [9]), the “Serum ALT (U/L)” value was 135 ± 5^c U/L.
